Laboratory results taken from BindingDB's records for doi:10.1021/cb4007562 (University of Konstanz, 2014).
pIC50: −log10 of the molar value.

Experiments:
DNA polymerase lambda = molecular target: T1, DNA polymerase lambda (Homo sapiens, UniProt Q9UGP5); assay: DNA Pol λ PEX Assay; details: pH 7.5
T1 sequence (Q9UGP5 whole entry): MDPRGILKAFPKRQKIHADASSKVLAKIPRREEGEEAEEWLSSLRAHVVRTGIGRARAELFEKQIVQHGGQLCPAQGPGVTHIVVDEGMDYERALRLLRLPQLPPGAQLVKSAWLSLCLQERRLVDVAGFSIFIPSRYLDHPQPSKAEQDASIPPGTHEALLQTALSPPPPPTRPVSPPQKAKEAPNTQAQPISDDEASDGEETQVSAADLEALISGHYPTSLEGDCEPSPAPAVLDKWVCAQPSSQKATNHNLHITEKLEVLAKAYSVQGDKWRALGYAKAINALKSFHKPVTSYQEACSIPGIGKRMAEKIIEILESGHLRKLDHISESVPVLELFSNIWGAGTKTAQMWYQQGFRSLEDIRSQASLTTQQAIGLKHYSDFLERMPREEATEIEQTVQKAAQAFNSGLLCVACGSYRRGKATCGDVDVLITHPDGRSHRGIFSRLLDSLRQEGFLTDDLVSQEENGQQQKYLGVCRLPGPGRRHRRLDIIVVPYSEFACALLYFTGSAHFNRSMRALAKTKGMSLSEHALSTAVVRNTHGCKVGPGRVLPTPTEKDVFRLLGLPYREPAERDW
Description: Pol λ reactions were made in a final volume of 20uL containing 50mM Tris-HCl pH 7.5, 1.5mM MgCl2, 5% (v/v) glycerol, 1mM DTT, 250nM purified recombinant pol λ, 150nM radioactive-labled primer F20H, 225nM template F33A, 0.1mg/mL BSA, 1uL compound solution with variable concentrations in DMSO (1uL DMSO for the solvent control). 5uL dNTP solution (15uM final) was added to initiate the reactions and positive controls. Reactions and controls were incubated for 30 min at 37 degrees Celsius and subsequently quenched using 45uL PAGE loading solution (80% (v/v) formamide, 20mM EDTA, 0.05% (w/v) bromophenol blue, 0.05% (w/v) xylene cyanol) per well. The reaction mixture was denatured for 5 min at 95 degrees Celsius and analyzed by 12% PAGE containing 8M urea.

DNA polymerase beta = DNA polymerase beta (Homo sapiens, UniProt P06746); assay: DNA Pol β PEX Assay; details: pH 7.9
Description: Pol β reactions were made in a final volume of 20uL containing 50mM Tris-HCl pH 7.9, 20mM KCl, 5% (v/v) glycerol, 1mM DTT, 2mM MnCl2, 250nM purified recombinant pol β, 150nM radioactive-labeled primer F20H, 225nM template F33A, 0.1mg/mL BSA, 1uL compound solution with various concentrations in DMSO (1uL DMSO for the solvent control). 5uL dNTP (15uM final) was added to initiate the reactions and positive controls. Reactions and controls were incubated for 30 min at 37 degrees Celsius and subsequently quenched using 45uL PAGE loading solution (80% (v/v) formamide, 20mM EDTA, 0.05% (w/v) bromophenol blue, 0.05% (w/v) xylene cyanol) per well. The reaction mixture was denatured for 5 min at 95 degrees Celsius and analyzed by 12% PAGE containing 8M urea.

Compound | pIC50 (DNA polymerase lambda) | pIC50 (DNA polymerase beta)
Cc1ccccc1Sc1ccc(C=C2SC(S)=NC2=O)cc1 [23 (Z)-2-Thioxo-5-(4-(o-tolylthio)benzylidene)thiazolidin-4-one 28] | > 5.00 | 4.30
Cc1ccccc1Sc1ccc(C=C2SC(S)=NC2=O)cc1C(F)(F)F [(Z)-2-Thioxo-5-(4-(o-tolylthio)-3-(trifluoromethyl)benzylidene)thiazolidin-4-one 30] | > 5.00 | > 4.30
Cc1ccc(Sc2ccc(C=C3SC(S)=NC3=O)cc2C(F)(F)F)cc1 [(Z)-2-Thioxo-5-(4-(p-tolylthio)-3-(trifluoromethyl)benzylidene)thiazolidin-4-one 15] | > 5.00 | 4.55
Cc1ccc(Sc2ccc(C=C3SC(S)=NC3=O)cc2)cc1 [(Z)-2-Thioxo-5-(4-(p-tolylthio)benzylidene)thiazolidin-4-one 11] | > 5.00 | > 4.30
Cc1ccc(Sc2ccc(C=C3SC(S)=NC3=O)c(Sc3ccc(C)cc3)c2)cc1 [(Z)-5-(2,4-Bis(p-tolylthio)benzylidene)-2-thioxothiazolidin-4-one 31] | 5.40 | > 4.30
Cc1ccc(Sc2ccc(C=C3SC(S)=NC3=O)cc2Br)cc1 [(Z)-5-(3-Bromo-4-(p-tolylthio)benzylidene)-2-thioxothiazolidin-4-one 14] | > 5.00 | < 4.30
Cc1ccc(Sc2ccc(C=C3SC(S)=NC3=O)cc2Cl)cc1 [(Z)-5-(3-Chloro-4-(p-tolylthio)benzylidene)-2-thioxothiazolidin-4-one 13] | 5.24 | < 4.30
Cc1ccccc1Sc1ccc(C=C2SC(S)=NC2=O)cc1F [(Z)-5-(3-Fluoro-4-(o-tolylthio)benzylidene)-2-thioxothiazolidin-4-one 29] | > 5.00 | 4.30
O=C1N=C(S)SC1=Cc1ccc(Sc2ccc(OC(F)(F)F)cc2)c([N+](=O)[O-])c1 [(Z)-5-(3-Nitro-4-((4-(trifluoromethoxy)phenyl)thio)benzylidene)-2-thioxothiazolidin-4-one 19] | > 4.70 | < 4.30
Cc1cccc(Sc2ccc(C=C3SC(S)=NC3=O)cc2[N+](=O)[O-])c1 [(Z)-5-(3-Nitro-4-(m-tolylthio)benzylidene)-2-thioxothiazolidin-4-one 22] | 5.22 | 4.53
Cc1ccccc1Sc1ccc(C=C2SC(S)=NC2=O)cc1[N+](=O)[O-] [(Z)-5-(3-Nitro-4-(o-tolylthio)benzylidene)-2-thioxothiazolidin-4-one 23] | 5.41 | 4.74
Cc1ccc(Sc2ccc(C=C3SC(S)=NC3=O)cc2[N+](=O)[O-])cc1F [(Z)-5-(4-((3-Fluoro-4-methylphenyl)thio)-3-nitrobenzylidene)-2-thioxothiazolidin-4-one 20] | > 5.00 | < 4.30
Cc1ccc(Sc2sc(C=C3SC(S)=NC3=O)cc2Br)cc1 [(Z)-5-((4-Bromo-5-(p-tolylthio)thiophen-2-yl)methylene)-2-thioxothiazolidin-4-one 32] | > 5.00 | > 4.30
Cc1ccc(Sc2ccc(C=C3SC(S)=NC3=O)cc2C#N)cc1 [(Z)-5-((4-Oxo-2-thioxothiazolidin-5-ylidene)methyl)-2-(ptolylthio) benzonitrile 16] | > 5.00 | 
Cc1ccc(Sc2ccc(C=C3SC(S)=NC3=O)cc2[N+](=O)[O-])cc1 [DNA polymerase inhibitor 1] | 5.23 | 4.19

Next, values leading:

pIC50 (DNA polymerase lambda) | pIC50 (DNA polymerase beta) | Compound
> 5.00 | > 4.30 | C=C(c1ccc(Sc2ccc(C)cc2)c([N+](=O)[O-])c1)c1sc(S)nc1O [(Z)-5-(1-(3-Nitro-4-(p-tolylthio)phenyl)ethylidene)-2-thioxothiazolidin-4-one 8]
5.40 | < 4.30 | Cc1ccc(Sc2ccc(C=C3SC(S)=NC3=O)cc2Br)cc1F [(Z)-5-(3-Bromo-4-((3-fluoro-4-methylphenyl)thio)benzylidene)-2-thioxothiazolidin-4-one 27]
> 5.00 | 4.41 | Cc1ccc(Sc2ccc(C=C3SC(S)=NC3=O)cc2F)cc1 [(Z)-5-(3-Fluoro-4-(p-tolylthio)benzylidene)-2-thioxothiazolidin-4-one 12]
> 5.00 | < 4.30 | O=C1N=C(S)SC1=Cc1ccc(Sc2c(F)c(F)c(C(F)(F)F)c(F)c2F)c([N+](=O)[O-])c1 [(Z)-5-(3-Nitro-4-((2,3,5,6-tetrafluoro-4-(trifluoromethyl)phenyl)thio)benzylidene)-2-thioxothiazolidin-4-one 21]
> 5.00 | < 4.30 | O=C1N=C(S)SC1=Cc1ccc(Sc2ccc(C(F)(F)F)cc2)c([N+](=O)[O-])c1 [(Z)-5-(3-Nitro-4-((4-(trifluoromethyl)phenyl)thio)benzylidene)-2-thioxothiazolidin-4-one 18]
> 5.00 | < 4.30 | Cc1ccc(Sc2ccc(C=C3SC(O)=NC3=O)cc2[N+](=O)[O-])cc1 [(Z)-5-(3-Nitro-4-(p-tolylthio)benzylidene)thiazolidine-2,4-dione 3]
> 4.70 |  | Cc1ccc(S(=O)(=O)c2ccc(C=C3SC(S)=NC3=O)cc2[N+](=O)[O-])cc1 [(Z)-5-(3-Nitro-4-tosylbenzylidene)-2-thioxothiazolidin-4-one 10]
> 5.00 | > 4.30 | CCc1ccc(Sc2ccc(C=C3SC(S)=NC3=O)cc2[N+](=O)[O-])cc1 [(Z)-5-(4-((4-Ethylphenyl)thio)-3-nitrobenzylidene)-2-thioxothiazolidin-4-one 17]
> 5.00 | > 4.30 | O=C1N=C(S)SC1=Cc1ccc(SC2CCCCC2)c([N+](=O)[O-])c1 [(Z)-5-(4-(Cyclohexylthio)-3-nitrobenzylidene)-2-thioxothiazolidin-4-one 2]
> 4.70 | < 4.30 | O=C1N=C(S)SC1=Cc1ccc(SC2CCCC2)c([N+](=O)[O-])c1 [(Z)-5-(4-(Cyclopentylthio)-3-nitrobenzylidene)-2-thioxothiazolidin-4-one 26]
> 5.00 | < 4.30 | O=C1N=C(S)SC1=Cc1ccc(Sc2ccc3ccccc3c2)c([N+](=O)[O-])c1 [(Z)-5-(4-(Naphthalen-2-ylthio)-3-nitrobenzylidene)-2-thioxothiazolidin-4-one 25]
